{"source": "ChEMBL document CHEMBL5154879", "about": "“Induction of Genes Implicated in Stress Response and Autophagy by a Novel Quinolin-8-yl-nicotinamide QN523 in Pancreatic Cancer” (J Med Chem, 2022)", "key": {"[1]": {"experiment": "Toxicity in NOD/SCID mouse xenografted with human MIA PaCa-2 cells assessed as lethargy at 10 to 20 mg/kg, ip administered five times a week for 44 days", "format": "organism-based", "details": "in vivo, 1056 h, dose 10-20 mg/kg, time 44 day"}, "[2]": {"experiment": "Upregulation of HMOX1 gene expression in human MIA PaCa-2 cells assessed as fold change in HMOX1 expression at 1 uM incubated for 24 hrs by Bru-seq analysis relative to control", "format": "functional"}, "MIA PaCa-2 [3]": {"system": "MIA PaCa-2", "experiment": "Induction of cell cycle arrest in human MIA PaCa-2 cells assessed as accumulation of cells at S phase at 0.5 uM incubated for 48 hrs by RNase/propidium iodide staining based flow cytometry analysis (Rvb =26.9 %)", "format": "functional"}, "MIA PaCa-2 [4]": {"system": "MIA PaCa-2", "experiment": "Antitumor activity against human MIA PaCa-2 cells xenografted in NOD/SCID mouse assessed as tumor growth delay at 20 mg/kg, ip administered five times a week starting from day 10 to 44 post first dose and measured from day 17", "format": "functional, organism-based", "details": "time 44.0 day"}, "[5]": {"experiment": "Downregulation of FGF18 gene expression in human MIA PaCa-2 cells assessed as fold change in FGF18 expression at 1 uM incubated for 24 hrs by Bru-seq analysis relative to control", "format": "functional"}, "[6]": {"experiment": "Downregulation of P1F1 gene expression in human MIA PaCa-2 cells assessed as fold change in P1F1 expression at 1 uM incubated for 24 hrs by Bru-seq analysis relative to control", "format": "functional"}, "[7]": {"experiment": "Cytotoxicity against human HFF-1 cells assessed as inhibition of cell growth incubated for 72 hrs by MTT assay", "format": "toxicity, cell-based"}, "[8]": {"experiment": "Upregulation of HSPA5 gene expression in human MIA PaCa-2 cells assessed as fold change in HSPA5 expression at 1 uM incubated for 24 hrs by Bru-seq analysis relative to control", "format": "functional"}, "MIA PaCa-2 [9]": {"system": "MIA PaCa-2", "experiment": "Upregulation of GDF15 gene expression in human MIA PaCa-2 cells incubated for 72 hrs by Western blot analysis", "format": "functional, cell-based", "details": "dose <= 600.0 µM, DDE = dose-dependent effect"}, "[10]": {"experiment": "Upregulation of MAP1LC3B gene expression in human MIA PaCa-2 cells assessed as fold change in MAP1LC3B expression at 1 uM incubated for 24 hrs by Bru-seq analysis relative to control", "format": "functional"}, "[11]": {"experiment": "Upregulation of HERPUD1 gene expression in human MIA PaCa-2 cells assessed as fold change in HERPUD1 expression at 1 uM incubated for 24 hrs by Bru-seq analysis relative to control", "format": "functional"}, "[12]": {"experiment": "Downregulation of FASN gene expression in human MIA PaCa-2 cells assessed as fold change in FASN expression at 1 uM incubated for 24 hrs by Bru-seq analysis relative to control", "format": "functional"}, "[13]": {"experiment": "Downregulation of RGS3 gene expression in human MIA PaCa-2 cells assessed as fold change in RGS3 expression at 1 uM incubated for 24 hrs by Bru-seq analysis relative to control", "format": "functional"}, "[14]": {"experiment": "Downregulation of GTSEI gene expression in human MIA PaCa-2 cells assessed as fold change in GTSEI expression at 1 uM incubated for 24 hrs by Bru-seq analysis relative to control", "format": "functional"}, "MIA PaCa-2 [15]": {"system": "MIA PaCa-2", "experiment": "Induction of circadian rhythm signaling pathway in human MIA PaCa-2 cells by ingenuity pathway analysis", "format": "functional, cell-based"}, "MIA PaCa-2 [16]": {"system": "MIA PaCa-2", "experiment": "Upregulation of apoptotic gene expression in human MIA PaCa-2 cells by gene set enrichment analysis", "format": "functional, cell-based"}, "MIA PaCa-2 [17]": {"system": "MIA PaCa-2", "experiment": "Induction of apoptosis in human MIA PaCa-2 cells assessed as early apoptotic cells at 0.5 uM incubated for 48 hrs by Annexin V-FITC/PI staining based flow cytometry analysis (reference value: 1.8%)", "format": "functional"}, "[18]": {"experiment": "Upregulation of FAM129A gene expression in human MIA PaCa-2 cells assessed as fold change in FAM129A expression at 1 uM incubated for 24 hrs by Bru-seq analysis relative to control", "format": "functional"}, "[19]": {"experiment": "Upregulation of SLFN5 gene expression in human MIA PaCa-2 cells assessed as fold change in SLFN5 expression at 1 uM incubated for 24 hrs by Bru-seq analysis relative to control", "format": "functional"}, "MIA PaCa-2 [20]": {"system": "MIA PaCa-2", "experiment": "Upregulation of HSPA5 gene expression in human MIA PaCa-2 cells incubated for 72 hrs by Western blot analysis", "format": "functional, cell-based", "details": "DDE = dose-dependent effect"}, "MIA PaCa-2 [21]": {"system": "MIA PaCa-2", "experiment": "Upregulation of MTOR signalling in human MIA PaCa-2 cells by gene set enrichment analysis", "format": "functional, cell-based"}, "[22]": {"experiment": "Downregulation of TACC3 gene expression in human MIA PaCa-2 cells assessed as fold change in TACC3 expression at 1 uM incubated for 24 hrs by Bru-seq analysis relative to control", "format": "functional"}, "MIA PaCa-2 [23]": {"system": "MIA PaCa-2", "experiment": "Inhibition of colony formation in human MIA PaCa-2 cells at 0.1 to 1 uM incubated for 10 to 14 days by crystal violet staining based assay", "format": "functional, cell-based", "details": "dose 0.1-1 µM, time 10-14 day"}, "MIA PaCa-2 [24]": {"system": "MIA PaCa-2", "experiment": "Induction of apoptosis in human MIA PaCa-2 cells assessed as necrotic cells at 0.5 uM incubated for 48 hrs by Annexin V-FITC/PI staining based flow cytometry analysis (reference value: 1.07%)", "format": "functional"}, "MIA PaCa-2 [25]": {"system": "MIA PaCa-2", "experiment": "Induction of autophagy in human MIA PaCa-2 cells assessed as accumulation of WIP11 marker gene expression at upto 2 uM incubated for 72 hrs by Western blot analysis", "format": "functional, cell-based"}, "[26]": {"experiment": "Downregulation of LMNB2 gene expression in human MIA PaCa-2 cells assessed as fold change in LMNB2 expression at 1 uM incubated for 24 hrs by Bru-seq analysis relative to control", "format": "functional"}, "BXPC-3": {"system": "BXPC-3", "experiment": "Cytotoxicity against human BXPC-3 cells assessed as inhibition of cell growth incubated for 72 hrs by MTT assay", "format": "functional, cell-based", "details": "BXPC-3, 72 h"}, "MIA PaCa-2 [27]": {"system": "MIA PaCa-2", "experiment": "Induction of apoptosis in human MIA PaCa-2 cells assessed as late apoptotic cells at 0.1 uM incubated for 24 hrs by Annexin V-FITC/PI staining based flow cytometry analysis (reference value: 2.04%)", "format": "functional"}, "[28]": {"experiment": "Upregulation of ARG2 gene expression in human MIA PaCa-2 cells assessed as fold change in ARG2 expression at 1 uM incubated for 24 hrs by Bru-seq analysis relative to control", "format": "functional"}, "[29]": {"experiment": "Toxicity in NOD/SCID mouse xenografted with human MIA PaCa- 2 cells assessed as morphological changes in kidney at 10 to 20 mg/kg, ip administered five times a week for 44 days by H and E staining based inverted microscopic analysis", "format": "organism-based", "details": "in vivo, 1056 h, dose 10-20 mg/kg, time 44 day"}, "[30]": {"experiment": "Downregulation of H2AFX gene expression in human MIA PaCa-2 cells assessed as fold change in H2AFX expression at 1 uM incubated for 24 hrs by Bru-seq analysis relative to control", "format": "functional"}, "MIA PaCa-2 [31]": {"system": "MIA PaCa-2", "experiment": "Antitumour activity against of human MIA PaCa-2 xenografted in NOD/SCID mouse assessed as reduction in Ki67 expression in tumor by immunohistochemical assay", "format": "functional"}, "MIA PaCa-2 [32]": {"system": "MIA PaCa-2", "experiment": "Induction of autophagy in human MIA PaCa-2 cells assessed as accumulation of LC3B marker gene expression at upto 2 uM incubated for 72 hrs by Western blot analysis", "format": "functional, cell-based"}, "Jurkat": {"system": "Jurkat", "experiment": "Antiproliferative activity against human Jurkat cells assessed as inhibition of cell growth incubated for 72 hrs by MTT assay", "format": "functional, cell-based"}}, "note": "Calls of active or inactive are those of the source. The calls are words filed in the database; no cut-off is given here."}
{"compound": "O=C(Nc1cccc2cccnc12)c1cnccn1", "values": [{"measurement": "Activity", "setting": "[1]", "value": "Non-Toxic"}, {"measurement": "fold change (FC)", "setting": "[2]", "value": 13}, {"measurement": "Activity", "setting": "MIA PaCa-2 [3]", "value": 57.3, "unit": "%"}, {"measurement": "Activity", "setting": "MIA PaCa-2 [4]", "value": "Active"}, {"measurement": "fold change (FC)", "setting": "[5]", "value": 0.32}, {"measurement": "fold change (FC)", "setting": "[6]", "value": 0.28}, {"measurement": "IC50 at 72 h", "setting": "[7]", "value": "> 30", "unit": "µM"}, {"measurement": "fold change (FC)", "setting": "[8]", "value": 8.8}, {"measurement": "Activity", "setting": "MIA PaCa-2 [9]", "value": "Dde"}, {"measurement": "fold change (FC)", "setting": "[10]", "value": 6.8}, {"measurement": "fold change (FC)", "setting": "[11]", "value": 9.8}, {"measurement": "fold change (FC)", "setting": "[12]", "value": 0.41}, {"measurement": "fold change (FC)", "setting": "[13]", "value": 0.46}, {"measurement": "fold change (FC)", "setting": "[14]", "value": 0.46}, {"measurement": "Activity", "setting": "MIA PaCa-2 [15]", "value": "Active"}, {"measurement": "Activity", "setting": "MIA PaCa-2 [16]", "value": "Active"}, {"measurement": "Activity", "setting": "MIA PaCa-2 [17]", "value": 2.2, "unit": "%"}, {"measurement": "fold change (FC)", "setting": "[18]", "value": 16.8}, {"measurement": "fold change (FC)", "setting": "[19]", "value": 10.3}, {"measurement": "Activity", "setting": "MIA PaCa-2 [20]", "value": "Dde"}, {"measurement": "Activity", "setting": "MIA PaCa-2 [21]", "value": "Active"}, {"measurement": "fold change (FC)", "setting": "[22]", "value": 0.45}, {"measurement": "inhibition", "setting": "MIA PaCa-2 [23]", "value": "Active"}, {"measurement": "Activity", "setting": "MIA PaCa-2 [24]", "value": 1.2, "unit": "%"}, {"measurement": "Activity", "setting": "MIA PaCa-2 [25]", "value": "Active"}, {"measurement": "fold change (FC)", "setting": "[26]", "value": 0.46}, {"measurement": "IC50", "setting": "BXPC-3", "value": 3.3, "unit": "µM"}, {"measurement": "Activity", "setting": "MIA PaCa-2 [27]", "value": 2.3, "unit": "%"}, {"measurement": "fold change (FC)", "setting": "[28]", "value": 12}, {"measurement": "Activity", "setting": "[29]", "value": "Non-Toxic"}, {"measurement": "fold change (FC)", "setting": "[30]", "value": 0.35}, {"measurement": "Activity", "setting": "MIA PaCa-2 [31]", "value": "Active"}, {"measurement": "Activity", "setting": "MIA PaCa-2 [32]", "value": "Active"}, {"measurement": "IC50", "setting": "Jurkat", "value": 0.1, "unit": "µM"}]}
